The test concerns the target S. cerevisiae eIF2B mutant, luciferase reporter luminescence. Briefly: eIF2B reporter inhibitors in yeast strains, dose response, S. cerevisiae, mutant, wild-type, luminescence, growth (AID 792).
Where [1] appears, read: measured here: mutant yeast growth.

Inconclusive results are not listed. Active and inactive are the calls of the source. How the calls were made is not given here.

Turning to `C=CCN(Cc1cccc(OC)c1OC)S(=O)(=O)N(C)C`, the IC50 was > 100 µM (inactive). The IC50 under setting [1] is greater than 100 µM.
Turning to `CN1C(=O)N(C)C2(c3ccccc3)NC(=O)NC12c1ccccc1` (centres undefined), the IC50 is > 100 µM (inactive). Under setting [1], the IC50 is greater than 100 µM.
For `CC(=O)c1cnc(Nc2nc(C)c3cc(C)c(C)cc3n2)nc1C` the same measures were > 100 µM (inactive) and greater than 100 µM.
For `COc1cccc(-n2ccnc2SCC(=O)Nc2cc(OC)ccc2OC)c1`, in that order: > 100 µM (inactive) and greater than 100 µM.
For `COc1ccccc1NC(=O)c1cc2ccccc2o/c1=N\O` the same measures were > 100 µM (inactive) and greater than 100 µM.
In the case of `CCC(=O)N1CCc2cc(S(=O)(=O)NC(C(=O)NCc3ccccc3)C(C)C)ccc21` (centres undefined), the IC50 was > 100 µM (inactive). The compound further gave an IC50 under setting [1] greater than 100 µM.
For `Nc1cc2c(cc1C(=O)c1ccccc1)OCCO2` the same measures were > 100 µM (inactive) and greater than 100 µM.
`O=S(=O)(N1CCCCC1)N1CCCN(S(=O)(=O)N2CCCCC2)CC1`: the IC50 is > 100 µM (inactive). The IC50 under setting [1] is greater than 100 µM.
Consider `Cc1ccccc1OCc1nc2c3cnn(C)c3ncn2n1`, for which the IC50 was > 100 µM (inactive). Further, the IC50 under setting [1] was greater than 100 µM.
For `CCOc1ccc(S(=O)(=O)N2CCC(C(N)=O)CC2)c2ccccc12`, in that order: > 100 µM (inactive) and greater than 100 µM.
As for `O=C(Oc1ccc2c(c1)CCC2)N1CCOCC1`, the IC50 is > 100 µM (inactive). For the same compound, under setting [1], the IC50 was greater than 100 µM.
Consider `Cc1ccc(NC(=O)CN(C)C(=O)CSc2nc3ccccc3o2)cc1`, for which the IC50 is > 100 µM (inactive). Under setting [1], this compound registered an IC50 greater than 100 µM.
On to `Cc1nn(C)c(C)c1CN(C)C(=O)c1cc2nc(-c3ccco3)cc(C(F)(F)F)n2n1`, for which the IC50 is > 100 µM (inactive). The same compound registered an IC50 under setting [1] greater than 100 µM.
Regarding `Cc1ncc(CO)c2cc(C(N)=O)c(=Nc3ccccc3)oc12`, the IC50 was > 100 µM (inactive). Also, under setting [1], the IC50 was greater than 100 µM.
Regarding `CCOC(=O)c1[nH]c2ccc(OC)cc2c1NC(=O)C(C)N1CCSCC1` (centres undefined), the IC50 is > 100 µM (inactive). The compound further displayed an IC50 under setting [1] greater than 100 µM.
For `Cc1cc(N)n2nc(-c3ccc(C(C)(C)C)cc3)cc2n1` the same measures were “inactive” and 30.1 µM.
For `O=C(O)c1cc2c(ccc3ccccc32)[nH]1`, in that order: > 100 µM (inactive) and greater than 100 µM.
Turning to `Cc1nnc2sc(-c3ccncc3)nn12`, the IC50 is > 100 µM (inactive). For the same compound, under setting [1], the IC50 was greater than 100 µM.
For `COc1cc(/C=C2\C(=O)N(CCC#N)N=C2C)c(Br)cc1OC(C)C` the same measures were > 100 µM (inactive) and greater than 100 µM.
For `CCOCC(=O)Nc1cccc(NC(C)=O)c1`, in that order: > 100 µM (inactive) and greater than 100 µM.
On to `O=C(Nc1cccnc1)c1ccccc1Oc1ccccc1`, for which the IC50 is > 100 µM (inactive). Moreover, under setting [1], the IC50 was greater than 100 µM.
Consider `CCCCN(C(=O)Cn1nnc2ccccc21)C(C(=O)NCCOC)c1ccccc1` (centres undefined), for which the IC50 is > 100 µM (inactive). For the same compound, the IC50 under setting [1] was greater than 100 µM.
For the compound `NC(=O)Cn1c(=O)n(Cc2ccco2)c(=O)c2c3c(sc21)CCCCC3`, the IC50 is > 100 µM (inactive). This compound also showed an IC50 under setting [1] greater than 100 µM.
Turning to `Cc1ccc(Cn2nnnc2CN2CCC(O)(c3ccc(F)cc3)CC2)cc1`, the IC50 is > 100 µM (inactive). Under setting [1], this compound displayed an IC50 greater than 100 µM.
For `O=C(NCc1ccco1)c1sc(=S)n2c1[nH]c(=O)c1ccccc12` the same measures were > 100 µM (inactive) and greater than 100 µM.
Consider `COc1cc(NS(=O)(=O)c2ccc3c(c2)n(C)c(=O)n3C)cc(OC)c1`, for which the IC50 is > 100 µM (inactive). The compound also returned an IC50 under setting [1] greater than 100 µM.
Turning to `CCCS(=O)(=O)N1CCC(C(=O)NCCc2ccc(C)cc2)CC1`, the IC50 is > 100 µM (inactive). In addition, the IC50 under setting [1] was greater than 100 µM.

The IC50 is the midpoint of a concentration-inhibition curve.
